Test results from article PMC6470533, “Structure–Activity Study, Characterization, and Mechanism of Action of an Antimicrobial Peptoid D2 and Its D- and L-Peptide Analogues” (Molecules, 2019).
Values after ≈ are worked out from the molar mass of the structure shown. Non-standard residues stand in square brackets, D forms with d. Residues, ends and D or L forms follow the SMILES beside them. N(1-naphthylmethyl)Gly = O=C(O)CNCc1cccc2ccccc12; d1Nal = N[C@H](Cc1cccc2ccccc12)C(=O)O; N(4-MeBn)Gly = Cc1ccc(CNCC(=O)O)cc1; dNle = CCCC[C@@H](N)C(=O)O; NBuGly = CCCCNCC(=O)O; Nlys = NCCCCNCC(=O)O

Key:
[1] = test system: Methicillin resistant Staphylococcus pseudintermedius, (C22963); format: cell-based; conditions: 18 h
[2] = test system: Staphylococcus aureus (ATCC 29213); format: cell-based; conditions: ATCC 29213, 18 h
[3] = test system: Acinetobacter baumannii, 27065; format: cell-based; conditions: 27065, 18 h
Procedure: (§1) To explore the antimicrobial activity of the library of peptides and peptidomimetics, they were tested against Acinetobacter baumannii, Corynebacterium auriscanis, Escherichia coli, Enterococcus faecalis, Enterococcus faecium, Klebsiella pneumonia, Proteus mirabilis, and Pseudomonas aeruginosa. Bacteria grown on agar plates for 18 h at 37 °C were diluted to ~1 × 10^8 CFU/mL in Mueller–Hinton broth (MHB). Two-fold serial dilutions of peptides and peptidomimetics in MHB II were inoculated with bacteria to achieve a final concentration of 5 × 10^5 CFU/mL in polypropylene 96 U-well microtiter plates (Almeco, Esbjerg, Denmark), followed by incubation at 37 °C in ambient air for 18 h. The MIC values were determined as the lowest concentration showing no visible bacterial growth. Experiments were performed twice (in technical triplicates) on two different days.

[4] = test system: Corynebacterium auriscanis, 31551; format: cell-based; conditions: 18 h
Procedure: as §1

[5] = test system: Enterococcus faecalis, 27404; format: cell-based; conditions: 27404, 18 h
Procedure: as §1

[6] = test system: Enterococcus faecium, 30951; format: cell-based; conditions: 30951, 18 h
Procedure: as §1

[7] = test system: Klebsiella pneumoniae, 26233; format: cell-based; conditions: 26233, 18 h
Procedure: as §1

Proteus mirabilis, 25178 = format: cell-based; conditions: 25178, 18 h
Procedure: as §1

[8] = test system: Pseudomonas aeruginosa (ATCC 27853); format: cell-based; conditions: ATCC 27853, 18 h
Procedure: as §1

[9] = test system: cell wall synthesis in MRSP E104; experiment: Macromolecule biosynthesis assay, cell wall (3H-glucosamine hydrochloride); format: cell-based, Staphylococcus pseudintermedius; conditions: 0.5× MIC, 20 min incubation, MRSP E104, 3H-glucosamine hydrochloride; means of two experiments
Procedure: The effect on DNA and cell wall synthesis was investigated after 20 min of incubation of MRSP E104 with the precursors ^3H-thymidine and ^3H-glucosamine hydrochloride, respectively, as previously reported by Ling et al.. Following macromolecule precipitation, radioactivity was counted using scintillation fluid. Incorporation of ^3H- or ^14C-labeled thymidine has been used to investigate DNA replication and transcriptional activity during the cell cycle; ^3H-glucosamine hydrochloride has been used in a mode of action study for the antimicrobial peptide plectasin, which targets the cell wall precursor lipid II [44].
Macromolecules (DNA and cell wall) biosynthesis rates were measured using strain MRSP E104 following a protocol adapted from Ling et al.. Briefly, overnight culture of E104 was diluted 1:100 in MHB and freshly grown up to OD 0.2 at 600 nm. Grown cells were pelleted down by centrifugation and then resuspended in fresh MHB medium followed by incubation for 20 min on a dry heat-bath with D2 or analogues or nisin and radiolabeled precursor: (50 µCi) ^3H-Thymidine (PerkinElmer) and (5 µCi) ^3H-glucosamine hydrochloride per mL for DNA and cell wall, respectively. A positive control without antimicrobials was maintained that corresponds to 100% synthesis rate. After 20 min of incubation, samples were precipitated with equal volume of cold 30% trichloroactic acid (TCA Sigma, Søborg, Denmark) on ice. After 15 to 30 min of incubation on ice, precipitates were filtered on a membrane filter and subsequently washed twice with cold 15% TCA and twice with cold water using a vacuum manifold. Next, filters were air dried overnight and then moved to 10 mL scintillation vials. Finally, 3 mL scintillation fluid was added to each vial and ^3H count was taken in Beckman Coulter LS6500 liquid scintillation counter for 1 min. The radioactive counts of the control samples with no antimicrobial exposure were considered to have 100% precursor incorporation and macromolecule synthesis. The percentage rates of macromolecule synthesis in the antimicrobial-exposed samples were calculated compared to control. Each experiment was performed twice with a technical replicate, and the average rates of synthesis were plotted.

MRSP ST71 strain E104 = experiment: Growth curve analysis (BioScreen); format: cell-based, Staphylococcus pseudintermedius; conditions: at the MIC, MRSP E104, OD600, 6 h, 37 °C
Procedure: First, we performed growth curve analysis using the well-characterized MRSP ST71 strain E104, which is resistant to a number of antibiotics. […] A well-characterized antimicrobial peptide, nisin, was used as control. […] Increased concentrations of nisin inhibited proportionally the growth of E104, both at sub-MIC and MIC concentrations.
The effect of D2 or analogues or nisin on the growth of MRSP strain E104 was evaluated using BioScreen (Oy Growth Curves Ab LTd, Helsinki, Finland). Freshly grown culture of E104 was diluted to OD 0.2 at 600 nm, supplemented with increased concentration of antimicrobials and distributed in a 100 well honeycomb micro-plate with volume 100 μL. The plate was incubated for 6 h at 37 °C with continuous shaking. The OD600 of each micro-culture was measured and recorded every 15 min after a 5 s pause of shaking in automatic mode. Recorded OD was plotted against time to prepare the growth curves. Experiment was performed twice and one representative result was presented.

S. aureus = experiment: MIC against canine clinical S. aureus strains (Table S2); format: cell-based, Staphylococcus aureus; conditions: for MIC S. aureus 25054: 25054, 8 G6, dog, 2009; for MIC S. aureus 25054 / MIC S. aureus 28264 / MIC S. aureus 36968: wound; for MIC S. aureus 27266: 27266, 16 G9, dog, 2010; for MIC S. aureus 27266 / MIC S. aureus 37708-2 / MIC S. aureus 38200 / MIC S. aureus 38565-1: skin; for MIC S. aureus 28264: 28264, 20 B1, dog, 2011; for MIC S. aureus 30935: 30935, 24 B9, dog, 2013; for MIC S. aureus 30935 / MIC S. aureus 37595: joint; for MIC S. aureus 36968: 36968, 61 A9, dog; for MIC S. aureus 36968 / MIC S. aureus 37595 / MIC S. aureus 37708-2 / MIC S. aureus 38200: 2016; for MIC S. aureus 37595: 37595, 65 D2, dog; for MIC S. aureus 37708-2: 37708-2, 66 C6, dog; for MIC S. aureus 38200: 38200, 68 E9, dog; for MIC S. aureus 38565-1: 38565-1, 70 A5, dog; for MIC S. aureus 38565-1 / MIC S. aureus 38841: 2017; for MIC S. aureus 38841: 38841, 70 G5, dog, urine
Procedure: (§2) Similarly, in this study, to assess the degree of selectivity for S. pseudintermedius, D2 and D2D were tested against a collection of S. aureus and MSSP strains (Table S2).
as §1

S. pseudintermedius = experiment: MIC against canine clinical S. pseudintermedius strains (Table S2); format: cell-based, Staphylococcus pseudintermedius; conditions: for MIC S. pseudintermedius 22963: 22963, 3 B9, dog, 2007; for MIC S. pseudintermedius 26071: 26071, 11 E5, dog; for MIC S. pseudintermedius 26071 / MIC S. pseudintermedius 26092-2 / MIC S. pseudintermedius 33228 / MIC S. pseudintermedius 37526-1 / MIC S. pseudintermedius 37535-1: skin; for MIC S. pseudintermedius 26071 / MIC S. pseudintermedius 26092-2: 2009; for MIC S. pseudintermedius 26092-2: 26092-2, 11 E4, dog; for MIC S. pseudintermedius 26959: 26959, 15 F8, dog, 2010; for MIC S. pseudintermedius 26959 / MIC S. pseudintermedius 27364: wound; for MIC S. pseudintermedius 27364: 27364, 17 A7, dog; for MIC S. pseudintermedius 27364 / MIC S. pseudintermedius 27382: 2011; for MIC S. pseudintermedius 27382: 27382, 17 B8, dog; for MIC S. pseudintermedius 27382 / MIC S. pseudintermedius 31524 / MIC S. pseudintermedius 35890: ear; for MIC S. pseudintermedius 31524: 31524, 54 C3, dog, 2013; for MIC S. pseudintermedius 33228: 33228, 55 E2, dog, 2014; for MIC S. pseudintermedius 35890: 35890, 59 B8, dog, 2015; for MIC S. pseudintermedius 37526-1: 37526-1, 65 B4, dog; for MIC S. pseudintermedius 37526-1 / MIC S. pseudintermedius 37535-1: 2016; for MIC S. pseudintermedius 37535-1: 37535-1, 65 B6, dog; for MIC S. pseudintermedius 38637: 38637, 70 C3, dog, wound 2017; for MIC S. pseudintermedius 38820: 38820, 70 F9, dog, urine 2017
Procedure: as §2, §1

Row | SMILES | MIC MRSP [1] [µg/mL] | MIC SA [2] [µg/mL] | MIC Acinetobacter baumannii [3] [µg/mL] | MIC Corynebacterium auriscanis [4] [µg/mL] | MIC Enterococcus faecalis [5] [µg/mL] | MIC Enterococcus faecium [6] [µg/mL] | MIC Klebsiella pneumoniae [7] [µg/mL] | MIC Proteus mirabilis (Proteus mirabilis, 25178) [µg/mL] | MIC PA [8] [µg/mL] | effect on (inhibition of) cell wall synthesis [9] [%] | growth curve, change of cell optical density over time (MRSP ST71 strain E104) | MIC S. aureus 25054 (S. aureus) [µg/mL] | MIC S. aureus 27266 (S. aureus) [µg/mL] | MIC S. aureus 28264 (S. aureus) [µg/mL] | MIC S. aureus 30935 (S. aureus) [µg/mL] | MIC S. aureus 36968 (S. aureus) [µg/mL] | MIC S. aureus 37595 (S. aureus) [µg/mL] | MIC S. aureus 37708-2 (S. aureus) [µg/mL] | MIC S. aureus 38200 (S. aureus) [µg/mL] | MIC S. aureus 38565-1 (S. aureus) [µg/mL] | also measured
1 | CCCC[C@@H](NC(=O)[C@@H](CCCCN)NC(=O)[C@@H](Cc1cccc2ccccc12)NC(=O)[C@@H](CCCCN)NC(=O)[C@@H](Cc1ccccc1)NC(=O)[C@@H](Cc1cccc2ccccc12)NC(=O)[C@@H](CCCCN)NC(=O)[C@H](N)CCCCN)C(N)=O [D2D] (H-[dK][dK][d1Nal][dF][dK][d1Nal][dK][dNle]-NH2) | 4 (≈ 3.38 µM) | 4 (≈ 3.38 µM) | 16 (≈ 13.5 µM) | 2 (≈ 1.69 µM) | 8 (≈ 6.75 µM) | 4 (≈ 3.38 µM) | 8 (≈ 6.75 µM) | >64 | 4 (≈ 3.38 µM) | 39 | cell lysis | 2 (≈ 1.69 µM) | 2 (≈ 1.69 µM) | 4 (≈ 3.38 µM) | 2 (≈ 1.69 µM) | 4 (≈ 3.38 µM) | 2 (≈ 1.69 µM) | 4 (≈ 3.38 µM) | 2 (≈ 1.69 µM) | 2 (≈ 1.69 µM) | MIC S. aureus 38841 (S. aureus): 4 µg/mL (≈ 3.38 µM); MIC S. pseudintermedius 22963 (S. pseudintermedius): 2 µg/mL (≈ 1.69 µM); MIC S. pseudintermedius 26071 (S. pseudintermedius): 1 µg/mL (≈ 0.844 µM); MIC S. pseudintermedius 26092-2 (S. pseudintermedius): 1 µg/mL (≈ 0.844 µM); MIC S. pseudintermedius 26959 (S. pseudintermedius): 2 µg/mL (≈ 1.69 µM); MIC S. pseudintermedius 27364 (S. pseudintermedius): 2 µg/mL (≈ 1.69 µM); MIC S. pseudintermedius 27382 (S. pseudintermedius): 2 µg/mL (≈ 1.69 µM); MIC S. pseudintermedius 31524 (S. pseudintermedius): 2 µg/mL (≈ 1.69 µM); MIC S. pseudintermedius 33228 (S. pseudintermedius): 2 µg/mL (≈ 1.69 µM); MIC S. pseudintermedius 35890 (S. pseudintermedius): 2 µg/mL (≈ 1.69 µM); MIC S. pseudintermedius 37526-1 (S. pseudintermedius): 2 µg/mL (≈ 1.69 µM); MIC S. pseudintermedius 37535-1 (S. pseudintermedius): 2 µg/mL (≈ 1.69 µM); MIC S. pseudintermedius 38637 (S. pseudintermedius): 2 µg/mL (≈ 1.69 µM); MIC S. pseudintermedius 38820 (S. pseudintermedius): 2 µg/mL (≈ 1.69 µM)
2 | CCCCN(CC(N)=O)C(=O)CN(CCCCN)C(=O)CN(Cc1cccc2ccccc12)C(=O)CN(CCCCN)C(=O)CN(Cc1ccc(C)cc1)C(=O)CN(Cc1cccc2ccccc12)C(=O)CN(CCCCN)C(=O)CNCCCCN [D2] (H-[Nlys][Nlys][N(1-naphthylmethyl)Gly][N(4-MeBn)Gly][Nlys][N(1-naphthylmethyl)Gly][Nlys][NBuGly]-NH2) | 4 (≈ 3.34 µM) | 8 (≈ 6.67 µM) | >64 | 2 (≈ 1.67 µM) | >64 | 16 (≈ 13.3 µM) | >64 | >64 | 16 (≈ 13.3 µM) | 28 | cell lysis | 4 (≈ 3.34 µM) | 8 (≈ 6.67 µM) | 4 (≈ 3.34 µM) | 4 (≈ 3.34 µM) | 4 (≈ 3.34 µM) | 4 (≈ 3.34 µM) | 8 (≈ 6.67 µM) | 4 (≈ 3.34 µM) | 4 (≈ 3.34 µM) | MIC S. aureus 38841 (S. aureus): 8 µg/mL (≈ 6.67 µM); MIC S. pseudintermedius 22963 (S. pseudintermedius): 1 to 2 µg/mL; MIC S. pseudintermedius 26071 (S. pseudintermedius): 1 µg/mL (≈ 0.834 µM); MIC S. pseudintermedius 26092-2 (S. pseudintermedius): 1 µg/mL (≈ 0.834 µM); MIC S. pseudintermedius 26959 (S. pseudintermedius): 2 µg/mL (≈ 1.67 µM); MIC S. pseudintermedius 27364 (S. pseudintermedius): 1 µg/mL (≈ 0.834 µM); MIC S. pseudintermedius 27382 (S. pseudintermedius): 1 µg/mL (≈ 0.834 µM); MIC S. pseudintermedius 31524 (S. pseudintermedius): 1 µg/mL (≈ 0.834 µM); MIC S. pseudintermedius 33228 (S. pseudintermedius): 1 µg/mL (≈ 0.834 µM); MIC S. pseudintermedius 35890 (S. pseudintermedius): 1 µg/mL (≈ 0.834 µM); MIC S. pseudintermedius 37526-1 (S. pseudintermedius): 1 µg/mL (≈ 0.834 µM); MIC S. pseudintermedius 37535-1 (S. pseudintermedius): 1 µg/mL (≈ 0.834 µM); MIC S. pseudintermedius 38637 (S. pseudintermedius): 1 µg/mL (≈ 0.834 µM); MIC S. pseudintermedius 38820 (S. pseudintermedius): 1 µg/mL (≈ 0.834 µM)
